# According to patent publication US20130085133A1, “ANTI-VIRAL TREATMENT AND ASSAY TO SCREENFOR ANTI-VIRAL AGENT” (Sourthern Research Institute Office of Commercialization …, priority 2010, published 2013):
# Read-outs that look alike come from different tables or passages of the source.
# Assays:
# [1] = system: respiratory syncytial virus (RSV) strain Long; settings: EC50 for CPE inhibition, HEp-2 cells, six days, tested range 25 ug/mL to 0.048 ug/mL (Chembridge), 50 uM to 0.097 uM (Enamine, SRI Proprietary)
# [2] = system: HEp-2 cells; experiment: cytotoxicity assay (percent viability of HEp-2 cells, Cell Titer-Glo); settings: cell viability of HEp-2 cells (text: IC50), top concentration 25 ug/mL (Chembridge), 50 uM (Enamine, SRI Proprietary)
# Experimental: (§1) Test compounds were evaluated by measuring their antiviral activity, cell toxicity, and selectivity. Test compounds were serially diluted in a plate to plate matrix or “stacked plate” matrix. All 320 compounds in a source plate were diluted together resulting in a 10 point dose response dilution series. It was visualized as a serial dilution series proceeding vertically through a stack of plates with the high dose plate on top and the low dose plate on the bottom.
# (§2) Following the six day incubation period, the assay plates were equilibrated to room temperature for 30 min and an equal volume (30 μL) of Cell Titer-Glo reagent (Promega Inc.) was added to each well using a WellMate (Matrix, Hudson, N.H.) and plates were incubated for an additional 10 min at room temperature. At the end of the incubation, luminescence was measured using a Perkin Elmer Envision™ multi-label reader (PerkinElmer, Wellesley, Mass.) with an integration time of 0.1 s.
# (§3) Data was analyzed using ActivityBase software (IDBS, Inc, Guilford, UK). thirty two control wells containing cells only and twenty four wells containing cells and virus were included on each assay plate and used to calculate Z′ value for each plate and to normalize the data on a per plate basis. […] Eight ribavirin positive control wells were included on each plate for quality control purposes, but were not used in Z′ calculations. […] In the toxicity assay, results are described as percent viability and the calculation is the same.
# (§4) An EC50 (for CPE inhibition) and IC50 (for cell viability) were calculated for each substance using the 4 parameter Levenburg-Marquardt algorithm with parameter A locked at 0 and parameter B locked at 100. Standard deviation, normalized chi2 and hill slope were used to evaluate the curves. Values were not extrapolated beyond the tested range of concentrations.
# [3] = system: RSV, Long strain; experiment: virus titer Reduction (VTR) assay, progeny virus TCID50 in HEp-2 cells; format: cell-based, respiratory syncytial virus (RSV); settings: for TCID-50 Reduction @ 3 ug/ml / log reduction at 3 µg/mL: 3 ug/ml compound; for TCID-50 Reduction @ 3 ug/ml / TCID-50 Reduction 6 @ ug/ml / TCID-50 Reduction 12 @ ug/ml / TCID-50 Reduction 25 @ ug/ml: log reduction in progeny virus titer; for TCID-50 Reduction 6 @ ug/ml / log reduction at 6 µg/mL: 6 ug/ml compound; for TCID-50 Reduction 12 @ ug/ml / log reduction at 12 µg/mL: 12 ug/ml compound; for TCID-50 Reduction 25 @ ug/ml / log reduction at 25 µg/mL: 25 ug/ml compound; for log reduction at 3 µg/mL / log reduction at 6 µg/mL / log reduction at 12 µg/mL / log reduction at 25 µg/mL / log reduction at 5 µg/mL / log reduction at 50 µg/mL: human respiratory syncytial virus, 48 h; for log reduction at 3 µg/mL: read-out: TCID-50 Reduction @ 3 ug/ml; for log reduction at 6 µg/mL: read-out: TCID-50 Reduction 6 @ ug/ml; for log reduction at 12 µg/mL: read-out: TCID-50 Reduction 12 @ ug/ml; for log reduction at 25 µg/mL: read-out: TCID-50 Reduction 25 @ ug/ml; for log reduction at 5 µg/mL: 5 ug/ml compound, read-out: TCID-50 Reduction @ 5 ug/ml; for log reduction at 50 µg/mL: 50 ug/ml compound, read-out: TCID-50 Reduction @ 50 ug/ml
# Experimental: Four concentrations of each compound were evaluated (Table 3). Briefly, the four concentrations of test compounds, HEp-2 cells (8×10^3 per well) and RSV, Long strain (MOI=0.9) were plated in 96 well microtiter plates. The plates were incubated for 48 hours. Fifteen (15) μl of 10-fold serial dilution of progeny virus containing medium from respective samples (test compound treated or untreated) was transferred to infect fresh HEp-2 cells (2×10^3 cells per well) in a 384 well format. Plates were incubated for an additional 6 days and luminescence was measured using Cell Titer-Glo reagent (Promega Inc.) to determine cell viability. […] A well showing lesser than 50% cell viability was regarded as positive for virus infection. Four replicates for each virus dilution were analyzed and the number of virus positive wells (out of 4) was plotted versus the dilution. TCID50 was calculated to be the dilution that produced two positive wells out of four using ActivityBase software (IDBS, Inc, Guilford, UK).
# [4] = system: respiratory syncytial virus (RSV) strain Long; experiment: microbe, parasite or virus in culture; settings: human respiratory syncytial virus, HEp-2, 144 h
# [5] = cytotoxicity assay (percent viability of HEp-2 cells, Cell Titer-Glo); settings: human, HEp-2 cells
# Experimental: as §1, §2, §3, §4
EC50 [4],Structure (SMILES),EC50 ([1]; unit not given),CC50 ([2]; unit not given),log reduction at 12 µg/mL [3],log reduction at 25 µg/mL [3],CC50 at 6 days [5],also measured
–,C=CCn1c(SCc2ccc(OC)c([N+](=O)[O-])c2)nnc1-c1cccc(Br)c1 [AB00294809],20.29,>25.00,–,–,–,–
–,Brc1cc2nc[nH]c2c2ccccc12 [AB00358081],12.07,>25.00,–,–,–,–
–,CC(=O)Nc1ccc(NC(=O)c2ccc3[nH]c4c(c3c2)CC(C)CC4)cc1 (stereo not drawn) [AB00804772],–,–,–,–,–,EC50 ([1]; unit inferred): 43.4 µM; CC50 ([2]; unit inferred): > 50 µM
–,COc1ccc2[nH]c(C(C#N)=Cc3cc4c(cc3Cl)OCO4)nc2c1 [AB00364575],17.76,>25.00,–,–,–,–
–,COc1ccc(-c2cn3cccnc3n2)cc1F [AB00292655],10.88,>25.00,–,–,–,–
–,COc1cc(OC)c(OC)cc1C=Nn1c(S)nnc1-c1ccc(C(C)(C)C)cc1 [AB00291789],10.96,>25.00,–,–,–,–
–,CC(=O)c1ccc(NC(=O)C(Cc2c[nH]c3ccccc23)NC(=O)c2cccs2)cc1 (stereo not drawn) [AB00776619],–,–,–,–,–,EC50 ([1]; unit inferred): 27.3 µM; CC50 ([2]; unit inferred): > 50 µM
–,N#CCCCSc1nnnn1-c1cccc(Cl)c1 [AB00287736],16.16,>25.00,–,–,–,–
–,O=C(O)CCNc1nc(Cc2ccccc2)nc2sc3c(c12)CCCC3 [AB00308859],20.48,>25.00,–,–,–,–
–,Cc1sc(NC(=O)Cc2ccccc2)c(C(=O)O)c1C [AB00877398],–,–,–,–,–,EC50 ([1]; unit inferred): 40.1 µM; CC50 ([2]; unit inferred): > 50 µM
–,Cc1ccc(-c2nc3ccccc3[nH]2)cc1NC(=O)c1ccc2c(c1)OCO2 [AB00348716],17.26,>25.00,–,–,–,–
–,Cc1cc(C=C(C#N)c2nc3ccccc3[nH]2)c(C)n1-c1ccccn1 [AB00342188],13.11,>25.00,–,–,–,–
–,Cc1ccc2[nH]c3c(c2c1)CN(C)CC3 [AB00275559],6.29,>25.00,–,–,–,TCID-50 Reduction @ 3 ug/ml [3]: 1.00; TCID-50 Reduction 6 @ ug/ml [3]: 1.93; TCID-50 Reduction 12 @ ug/ml [3]: 2.21; TCID-50 Reduction 25 @ ug/ml [3]: 1.93
–,CC(=O)Nc1ccc(Nc2ncnc3sc4c(c23)CCCC4)cc1 [AB00296051],16.70,>25.00,–,–,–,–
–,S=C(c1c[nH]c2ccc(Br)cc12)N1CCOCC1 [AB00303357],21.92,>25.00,–,–,–,–
–,Cc1[nH]c2ccccc2c1-c1csc(-c2ccncc2)n1 [AB00291074],20.59,>25.00,–,–,–,–
–,CC(N)=C(C#N)C(=O)CN1C(=O)NC(Cc2c[nH]c3ccccc23)C1=O (stereo not drawn) [AB00722846],–,–,–,–,–,EC50 ([1]; unit inferred): 1.74 µM; CC50 ([2]; unit inferred): > 50 µM
–,Fc1ccc(-c2cc(C(F)(F)F)n[nH]2)cc1 [AB00294826],16.73,>25.00,–,–,–,–
–,Cc1ccc2[nH]c(-c3sc4nc(C)ccc4c3N)nc2c1 [AB00372475],21.04,>25.00,–,–,–,–
–,O=C(Nc1ccc(OC(F)(F)F)cc1)c1ccc2[nH]cnc2c1 [AB00368222],12.26,>25.00,–,–,–,–
8.62 µg/mL,CC1=Nc2ccc(C)c3nc(C)cc(c23)N1c1ccc(C)cc1 [AB00280244],–,–,1.55,2.89,> 25 µg/mL,log reduction at 3 µg/mL [3]: 1.55; log reduction at 6 µg/mL [3]: 1.36

EC50 [4],Structure (SMILES),EC50 ([1]; unit not given),CC50 ([2]; unit not given),log reduction at 12 µg/mL [3],log reduction at 25 µg/mL [3],CC50 at 6 days [5],also measured
–,COc1cc(N2CCCC2)c(OC)cc1C=C(C#N)c1nc2ccccc2[nH]1 [AB00321587],9.15,>25.00,–,–,–,–
–,CCN(CC)C(=O)C1CCCc2c1[nH]c1ccc(Cl)cc21 (stereo not drawn) [AB00279132],1.92,>25.00,–,–,–,TCID-50 Reduction @ 3 ug/ml [3]: 1.00; TCID-50 Reduction 6 @ ug/ml [3]: 3.63; TCID-50 Reduction 12 @ ug/ml [3]: 4.22; TCID-50 Reduction 25 @ ug/ml [3]: 3.83
4.47 µg/mL,COc1ccc(CNCCC(c2ccc(F)cc2)c2ccco2)cc1OC (stereo not drawn) [AB00362846],–,–,2.82,5.48,> 25 µg/mL,log reduction at 3 µg/mL [3]: 1; log reduction at 6 µg/mL [3]: 1.92
9.42 µg/mL,O=C(Nc1cccc(NC(=O)C23CC4CC(CC(C4)C2)C3)c1)c1ccccc1F [AB00359685],–,–,4.4,4.94,> 25 µg/mL,log reduction at 3 µg/mL [3]: 1; log reduction at 6 µg/mL [3]: 2.13
–,O=C(Nc1ccc2[nH]c(-c3ccccc3)nc2c1)c1ccccc1 [AB00308659],8.66,>25.00,–,–,–,TCID-50 Reduction @ 3 ug/ml [3]: 2.82; TCID-50 Reduction 6 @ ug/ml [3]: 3.64; TCID-50 Reduction 12 @ ug/ml [3]: 6.43; TCID-50 Reduction 25 @ ug/ml [3]: 6.40
9.56 µg/mL,O=C(Cc1ccc(Br)cc1)Nc1ccccc1C(=O)O [AB00369287],–,–,4.73,6.57,> 25 µg/mL,log reduction at 3 µg/mL [3]: 1; log reduction at 6 µg/mL [3]: 3.31
2.77 µg/mL,Oc1ccc(Nc2nc(-c3ccc(O)cc3)cs2)cc1 [AB00355020],–,–,2.2,2.55,> 25 µg/mL,log reduction at 3 µg/mL [3]: 1; log reduction at 6 µg/mL [3]: 1.01
6.3 µM,COCC(C)n1c(SC(C)C(=O)Nc2cc([N+](=O)[O-])ccc2Cl)nc2ccccc2c1=O (stereo not drawn) [AB00725538],–,–,4.98,5.56,> 50 µM,log reduction at 5 µg/mL [3]: 2.95; log reduction at 50 µg/mL [3]: 5.87
1.89 µg/mL,O=C(Cc1cccs1)Nc1nc2c(s1)CCCC2 [AB00313042],–,–,5.43,6.4,> 25 µg/mL,log reduction at 3 µg/mL [3]: 3.56; log reduction at 6 µg/mL [3]: 5.24
9.72 µg/mL,CCOC(=O)Cc1nnc(Nc2ccc(C)cc2)c2ccccc12 [AB00285095],–,–,1.99,2.56,> 25 µg/mL,log reduction at 3 µg/mL [3]: 1; log reduction at 6 µg/mL [3]: 1.32
–,CC1CCc2[nH]c3ccc(C(=O)OCC(=O)C(C)(C)C)cc3c2C1 (stereo not drawn) [AB00796257],–,–,–,–,–,EC50 ([1]; unit inferred): 24.8 µM; CC50 ([2]; unit inferred): > 50 µM
9.78 µg/mL,Cc1cc(C)cc(C(=O)Nc2cccc(NC(=O)c3ccccc3C)c2)c1 [AB00353228],–,–,3.42,3.43,> 25 µg/mL,log reduction at 3 µg/mL [3]: 1.55; log reduction at 6 µg/mL [3]: 2.87
–,CCOC(=O)c1ccc(-n2c(C)cc(C=C(C#N)c3nc4ccccc4[nH]3)c2C)cc1 [AB00709376],–,–,–,–,–,EC50 ([1]; unit inferred): 10.8 µM; CC50 ([2]; unit inferred): > 50 µM
2.18 µg/mL,COCc1cc(C)nc(SCC(=O)Nc2ccccc2N2CCOCC2)c1C#N [AB00345103],–,–,3.2,2.86,> 25 µg/mL,log reduction at 3 µg/mL [3]: 1; log reduction at 6 µg/mL [3]: 1.31
–,CCCOc1ccc(-c2n[nH]c(SCc3ccc(C(=O)OC)o3)n2)cc1 [AB00356597],11.59,>25.00,–,–,–,–
2.4 µM,O=c1cnn([C@@H]2O[C@H](CO)[C@@H](O)[C@H]2O)c(=O)[nH]1 [SRI-7958],–,–,5.98,5.56,> 50 µM,log reduction at 5 µg/mL [3]: 3.58; log reduction at 50 µg/mL [3]: 5.87
6.41 µg/mL,Cc1sc(NC(=O)c2c(F)cccc2F)nc1-c1ccccc1 [AB00309154],–,–,1.42,1.88,> 25 µg/mL,log reduction at 3 µg/mL [3]: 1.54; log reduction at 6 µg/mL [3]: 1.38
3.37 µg/mL,COC(=O)C1=C(C)N(Cc2ccccc2)C(=O)NC1c1ccc(OC)c(OC)c1 (stereo not drawn) [AB00318114],–,–,5.56,5.9,> 25 µg/mL,log reduction at 3 µg/mL [3]: 2.42; log reduction at 5 µg/mL [3]: 4.69
–,CCC(Sc1nnc2c3ccccc3n(CCc3ccccc3)c2n1)C(=O)Nc1ccc(S(N)(=O)=O)cc1 (stereo not drawn) [AB00287440],17.84,>25.00,–,–,–,–
5.86 µg/mL,O=C(NCCSCc1c(F)cccc1Cl)c1cccc([N+](=O)[O-])c1 [AB00306112],–,–,1.68,2.88,> 25 µg/mL,log reduction at 3 µg/mL [3]: 1.85; log reduction at 6 µg/mL [3]: 1.38
